Literature values as cited in patent US20150346185A1, “DIAGNOSIS OF CYSTIC FIBROSIS” (priority 2012, published 2015).

Target: T1, Na+ channel ENaC (Homo sapiens, UniProt P37088+P51168+P51170)
T1 construct: from tissue; host or cells: human nasal epithelium (healthy individuals and cystic fibrosis patients)
Details: healthy patients, infusion of amiloride

T1 sequence (P51168 whole entry): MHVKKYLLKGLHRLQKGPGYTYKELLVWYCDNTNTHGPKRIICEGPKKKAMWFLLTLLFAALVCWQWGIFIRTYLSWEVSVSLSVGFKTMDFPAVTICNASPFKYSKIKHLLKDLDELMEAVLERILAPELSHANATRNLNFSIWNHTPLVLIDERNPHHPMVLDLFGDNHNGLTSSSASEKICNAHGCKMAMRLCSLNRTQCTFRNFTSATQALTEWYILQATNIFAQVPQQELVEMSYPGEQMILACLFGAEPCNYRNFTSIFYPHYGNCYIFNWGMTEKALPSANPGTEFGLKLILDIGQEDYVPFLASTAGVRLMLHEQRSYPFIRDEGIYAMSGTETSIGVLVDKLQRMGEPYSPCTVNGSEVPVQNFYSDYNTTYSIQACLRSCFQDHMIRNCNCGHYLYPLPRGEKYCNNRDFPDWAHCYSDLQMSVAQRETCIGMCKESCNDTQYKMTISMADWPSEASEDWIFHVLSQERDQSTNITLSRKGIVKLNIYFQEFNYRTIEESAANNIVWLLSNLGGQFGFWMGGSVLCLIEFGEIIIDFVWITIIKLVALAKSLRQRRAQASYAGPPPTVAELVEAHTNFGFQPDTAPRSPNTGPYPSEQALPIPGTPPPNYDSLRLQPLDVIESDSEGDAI
T1 sequence (P37088 whole entry): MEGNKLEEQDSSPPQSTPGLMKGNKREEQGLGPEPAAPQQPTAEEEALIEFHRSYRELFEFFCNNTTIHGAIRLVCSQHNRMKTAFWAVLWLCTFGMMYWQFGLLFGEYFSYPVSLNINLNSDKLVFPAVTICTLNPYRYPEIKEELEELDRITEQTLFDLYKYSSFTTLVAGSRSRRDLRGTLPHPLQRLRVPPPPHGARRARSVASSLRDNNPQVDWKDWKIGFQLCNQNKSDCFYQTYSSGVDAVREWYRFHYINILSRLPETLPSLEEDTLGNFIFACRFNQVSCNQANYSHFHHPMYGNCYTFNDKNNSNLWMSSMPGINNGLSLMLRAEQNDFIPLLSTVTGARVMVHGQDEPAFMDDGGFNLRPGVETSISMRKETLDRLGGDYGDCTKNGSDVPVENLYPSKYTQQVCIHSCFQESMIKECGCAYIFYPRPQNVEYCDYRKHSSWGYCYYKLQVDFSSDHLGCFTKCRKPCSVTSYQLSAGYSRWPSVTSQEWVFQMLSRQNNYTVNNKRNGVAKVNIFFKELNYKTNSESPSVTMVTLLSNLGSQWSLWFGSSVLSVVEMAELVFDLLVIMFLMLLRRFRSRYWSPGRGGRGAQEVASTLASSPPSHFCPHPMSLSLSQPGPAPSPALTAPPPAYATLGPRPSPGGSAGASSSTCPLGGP
T1 sequence (P51170 whole entry): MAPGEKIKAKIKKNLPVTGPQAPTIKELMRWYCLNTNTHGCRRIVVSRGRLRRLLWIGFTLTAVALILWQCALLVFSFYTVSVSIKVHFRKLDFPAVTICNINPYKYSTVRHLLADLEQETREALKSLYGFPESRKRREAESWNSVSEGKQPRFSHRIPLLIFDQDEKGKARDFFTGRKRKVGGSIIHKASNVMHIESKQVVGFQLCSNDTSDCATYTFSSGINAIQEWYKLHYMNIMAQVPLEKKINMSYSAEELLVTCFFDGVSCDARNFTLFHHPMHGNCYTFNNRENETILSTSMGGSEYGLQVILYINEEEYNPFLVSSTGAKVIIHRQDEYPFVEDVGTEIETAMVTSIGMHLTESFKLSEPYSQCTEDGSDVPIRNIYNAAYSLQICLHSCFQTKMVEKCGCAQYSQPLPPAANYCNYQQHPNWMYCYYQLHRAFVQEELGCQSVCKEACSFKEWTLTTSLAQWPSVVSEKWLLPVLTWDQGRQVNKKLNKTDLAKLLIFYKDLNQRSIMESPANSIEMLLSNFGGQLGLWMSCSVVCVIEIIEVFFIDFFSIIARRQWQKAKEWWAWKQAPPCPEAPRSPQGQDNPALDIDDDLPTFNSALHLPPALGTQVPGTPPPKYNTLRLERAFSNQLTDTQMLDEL

## N=C(N)NC(=O)c1nc(Cl)c(N)nc1N [amiloride]
  reduction of nasal transepithelial potential difference: 55%
